Measured values from paper PMC5403251 (Neuropharmacology, 2016).

Tests used:
[1] = system: C57BL/6J mice; assay: Discrete-trials temporal discrimination task; format: in vivo, mouse
[2] = system: 5-HT2C receptors; conditions: ref Kennett et al., 1997; cited from earlier work
[3] = system: 5-HT2C; conditions: in mice; ref Canal et al., 2013; cited from earlier work
[4] = molecular target: T1, α2A (Homo sapiens, UniProt P08913); assay: NIMH PDSP binding screen
T1 sequence (P08913 1-465): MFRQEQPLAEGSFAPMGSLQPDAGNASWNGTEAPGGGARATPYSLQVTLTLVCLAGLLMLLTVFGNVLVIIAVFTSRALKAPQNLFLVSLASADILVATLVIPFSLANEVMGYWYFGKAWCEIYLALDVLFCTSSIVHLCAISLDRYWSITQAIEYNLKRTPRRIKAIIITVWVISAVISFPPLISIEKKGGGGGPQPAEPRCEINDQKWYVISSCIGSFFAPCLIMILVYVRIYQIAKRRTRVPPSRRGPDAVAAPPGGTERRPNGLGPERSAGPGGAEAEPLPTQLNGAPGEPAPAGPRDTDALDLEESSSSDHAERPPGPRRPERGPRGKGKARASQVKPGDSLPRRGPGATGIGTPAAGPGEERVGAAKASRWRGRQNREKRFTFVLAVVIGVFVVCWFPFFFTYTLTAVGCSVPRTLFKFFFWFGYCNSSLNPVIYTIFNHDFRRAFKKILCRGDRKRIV

[5] = molecular target: T2, sigma-2 (Rattus norvegicus, UniProt Q5U3Y7); assay: NIMH PDSP binding screen
T2 sequence (Q5U3Y7 1-176): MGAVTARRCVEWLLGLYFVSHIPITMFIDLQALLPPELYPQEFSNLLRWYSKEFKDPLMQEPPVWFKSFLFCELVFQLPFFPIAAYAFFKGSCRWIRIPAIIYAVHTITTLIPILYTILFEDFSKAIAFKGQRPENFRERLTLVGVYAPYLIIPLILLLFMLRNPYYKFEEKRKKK

[6] = system: NIH Swiss mice; conditions: mediated by the 5-HT2A receptor, ref Fantegrossi et al., 2014; cited from earlier work
[7] = molecular target: T3, α2B (Homo sapiens, UniProt P18089); assay: NIMH PDSP binding screen
T3 sequence (P18089 1-450): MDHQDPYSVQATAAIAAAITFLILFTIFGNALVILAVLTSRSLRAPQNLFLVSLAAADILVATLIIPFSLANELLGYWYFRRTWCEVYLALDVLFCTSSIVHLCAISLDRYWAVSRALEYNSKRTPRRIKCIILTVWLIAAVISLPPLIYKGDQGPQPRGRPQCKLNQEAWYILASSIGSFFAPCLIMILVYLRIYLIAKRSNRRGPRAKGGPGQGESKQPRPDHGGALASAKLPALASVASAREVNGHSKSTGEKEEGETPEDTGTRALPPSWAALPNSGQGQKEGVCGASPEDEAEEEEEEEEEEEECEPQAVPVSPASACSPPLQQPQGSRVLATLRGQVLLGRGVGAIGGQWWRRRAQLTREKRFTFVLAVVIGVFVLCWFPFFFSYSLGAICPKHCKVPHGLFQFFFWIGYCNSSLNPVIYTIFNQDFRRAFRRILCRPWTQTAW

[8] = molecular target: T4, α2C (Homo sapiens, UniProt P18825); assay: NIMH PDSP binding screen
T4 sequence (P18825 1-462): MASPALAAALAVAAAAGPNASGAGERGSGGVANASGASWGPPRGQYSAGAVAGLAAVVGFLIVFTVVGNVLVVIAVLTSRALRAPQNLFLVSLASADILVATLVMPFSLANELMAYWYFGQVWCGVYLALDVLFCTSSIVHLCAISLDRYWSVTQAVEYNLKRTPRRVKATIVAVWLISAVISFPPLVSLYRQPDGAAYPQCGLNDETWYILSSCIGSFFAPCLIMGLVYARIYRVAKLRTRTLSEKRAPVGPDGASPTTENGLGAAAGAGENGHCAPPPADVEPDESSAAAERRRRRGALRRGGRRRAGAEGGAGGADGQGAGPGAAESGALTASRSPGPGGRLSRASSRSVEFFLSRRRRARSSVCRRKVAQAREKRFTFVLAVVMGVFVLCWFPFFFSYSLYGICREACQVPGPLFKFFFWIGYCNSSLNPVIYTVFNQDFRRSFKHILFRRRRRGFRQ

[9] = molecular target: β2 (Homo sapiens, UniProt P07550); assay: NIMH PDSP binding screen
[10] = molecular target: T5, human 5-HT2C receptor (Homo sapiens, UniProt P28335); assay: NIMH PDSP competitive radioligand binding, [3H]mesulergine
T5 sequence (P28335 33-458): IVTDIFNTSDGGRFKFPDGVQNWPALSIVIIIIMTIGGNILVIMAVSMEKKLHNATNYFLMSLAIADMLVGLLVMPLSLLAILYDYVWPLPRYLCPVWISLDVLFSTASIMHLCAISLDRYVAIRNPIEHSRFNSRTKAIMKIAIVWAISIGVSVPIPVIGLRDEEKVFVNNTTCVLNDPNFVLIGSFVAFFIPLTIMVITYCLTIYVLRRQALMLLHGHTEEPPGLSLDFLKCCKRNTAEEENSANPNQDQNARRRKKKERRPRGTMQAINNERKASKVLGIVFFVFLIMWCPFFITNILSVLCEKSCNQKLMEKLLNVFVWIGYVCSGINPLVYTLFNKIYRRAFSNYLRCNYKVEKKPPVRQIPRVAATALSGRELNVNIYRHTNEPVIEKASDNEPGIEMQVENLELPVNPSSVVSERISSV

[11] = system: C57BL/6J mice; assay: Head twitch response; format: in vivo, mouse
[12] = molecular target: 5-HT6 (Homo sapiens, UniProt P50406); assay: NIMH PDSP binding screen
[13] = molecular target: histaminergic H2 (Homo sapiens, UniProt P25021); assay: NIMH PDSP binding screen
[14] = SB-242,084 0.1 mg/kg SC, 10 min before session
[15] = SB-242,084 0.3 mg/kg SC, 10 min before session
[16] = SB-242,084 1 mg/kg SC, 10 min before session
[17] = 25CN-NBOH 1 mg/kg SC, 5 min before session
[18] = 25CN-NBOH 6 mg/kg SC, 5 min before session

Sequence of histaminergic H2 (P25021 whole entry): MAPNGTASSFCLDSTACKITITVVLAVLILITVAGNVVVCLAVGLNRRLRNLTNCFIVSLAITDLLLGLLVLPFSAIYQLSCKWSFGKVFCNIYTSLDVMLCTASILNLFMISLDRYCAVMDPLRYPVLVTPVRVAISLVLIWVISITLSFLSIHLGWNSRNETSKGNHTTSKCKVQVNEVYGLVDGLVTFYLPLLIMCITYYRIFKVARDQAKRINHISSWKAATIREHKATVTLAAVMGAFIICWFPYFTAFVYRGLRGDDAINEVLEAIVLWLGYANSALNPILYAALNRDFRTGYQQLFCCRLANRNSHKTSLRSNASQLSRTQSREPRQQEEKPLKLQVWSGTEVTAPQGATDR
Sequence of 5-HT6 (P50406 whole entry, species assumed): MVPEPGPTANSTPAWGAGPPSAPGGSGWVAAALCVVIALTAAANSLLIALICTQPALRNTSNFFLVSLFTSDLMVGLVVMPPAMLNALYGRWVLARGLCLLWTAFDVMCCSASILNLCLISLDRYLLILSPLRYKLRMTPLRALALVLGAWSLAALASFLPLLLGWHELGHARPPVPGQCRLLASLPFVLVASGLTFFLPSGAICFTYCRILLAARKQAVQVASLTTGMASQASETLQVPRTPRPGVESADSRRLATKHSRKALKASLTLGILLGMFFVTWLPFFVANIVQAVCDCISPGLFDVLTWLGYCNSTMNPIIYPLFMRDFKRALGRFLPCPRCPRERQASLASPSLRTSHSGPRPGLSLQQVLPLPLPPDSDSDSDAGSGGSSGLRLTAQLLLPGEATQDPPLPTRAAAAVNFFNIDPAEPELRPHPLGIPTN
Sequence of β2 (P07550 whole entry): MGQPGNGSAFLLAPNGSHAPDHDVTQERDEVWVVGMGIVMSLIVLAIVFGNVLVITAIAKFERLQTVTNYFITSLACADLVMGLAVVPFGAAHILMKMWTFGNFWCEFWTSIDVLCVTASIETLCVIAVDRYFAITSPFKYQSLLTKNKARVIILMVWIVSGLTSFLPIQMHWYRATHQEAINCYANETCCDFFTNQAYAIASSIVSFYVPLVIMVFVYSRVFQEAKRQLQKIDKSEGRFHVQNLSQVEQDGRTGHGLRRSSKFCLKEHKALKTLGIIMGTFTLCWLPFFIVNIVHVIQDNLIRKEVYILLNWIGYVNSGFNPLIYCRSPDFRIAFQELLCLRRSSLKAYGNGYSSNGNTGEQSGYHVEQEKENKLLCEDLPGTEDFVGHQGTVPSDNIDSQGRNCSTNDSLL

With “6-chloro-2,3-dihydro-5-methyl-N-[6-[(2-methyl-3-pyridinyl)oxy]-3-pyridinyl]-1H-indole-1-carboxyamide dihydrochloride [SB-242,084]” the “Effect of pretreatment on the response to DOI (%B responding)” value ([1]; SB-242,084 0.1 mg/kg SC pretreatment, DOI 3 mg/kg IP) was “did not block the ability of DOI to alter %B responding”, the “Difference limen” value [1, 14] was 0.98 ± 0.10 s and the “Slope (ε)” value [1, 14] was 1.202±0.110. The T50 [1, 14] was 6.28 ± 0.14 s, the Trials completed [1, 14] was 191.4±1.6 and the “Weber fraction” value ([1]; SB-242,084 0.1 mg/kg SC, 10 min before session, mean±SEM) was 0.156±0.016. The “Difference limen” value [1, 15] was 1.05 ± 0.08 s, the “Slope (ε)” value [1, 15] was 1.094±0.084 and the T50 [1, 15] was 6.02 ± 0.14 s. For the same compound, the Trials completed [1, 15] was 189.9±2.5, the “Weber fraction” value [1, 15] was 0.173±0.015 and the “Difference limen” value [1, 16] was 1.07 ± 0.09 s. For the same compound, the “Slope (ε)” value [1, 16] was 1.105±0.108, the T50 [1, 16] was 5.66 ± 0.17 s and the Trials completed [1, 16] was 188.0±2.8. For the same compound, the “Weber fraction” value [1, 16] was 0.191±0.018, the “Selectivity for 5-HT2C receptors compared with 5-HT2A and 5-HT2B receptors” value [2] was “over 100 fold” and the “Selectivity for 5-HT2C over 5-HT2A” value [3] was 960 fold.

In the case of `COc1cc(CCNCc2ccccc2O)c(OC)cc1C#N.Cl` [25CN-NBOH, N-(2-hydroxybenzyl)-2,5-dimethoxy-4-cyanophenethylamine hydrochloride], the Difference limen [1, 17] is reported as 1.09 ± 0.11 s, the “Slope (ε)” value [1, 17] is reported as 1.098±0.125 and the T50 [1, 17] is reported as 6.33 ± 0.20 s. The Trials completed [1, 17] was 182.4±3.7, the Weber fraction ([1]; 25CN-NBOH 1 mg/kg SC, 5 min before session, mean±SEM) was 0.175±0.020 and the “%B responding (proportional choice of lever B)” value ([1]; 25CN-NBOH 6 mg/kg SC) was “reduced %B responding at long stimulus intervals”. For the same compound, the Difference limen [1, 18] was 1.65 ± 0.12 s, the T50 [1, 18] was 7.63 ± 0.24 s and the Trials completed [1, 18] was 134.5±8.4. The Weber fraction [1, 18] was 0.217±0.015, the “%B responding (proportional choice of lever B)” value ([1]; 25CN-NBOH 0.3–3 mg/kg SC) was “did not significantly alter %B responding” and the “Correct responding during the 10.5 s-trials” value ([1]; after drug treatment that reduced %B responding at long stimulus intervals) was “more than 80%”. For the same compound, the Ki [4] was 803 nM, the Ki [5] was 575 nM and the “Head twitch response (HTR)” value [6] was “induce the head twitch response”. The Ki [7] was 1230 nM, the Ki [8] was 543 nM and the Ki [9] was 1610 nM. The Ki [10] was 49.8 ± 7.4 nM, the ED50 ([11]; Mus musculus, sc, 0.5 h, read-out: HTR ED50) was 0.36 mg/kg and the “Dose producing the maximal HTR response” value ([11]; SC, 30-min session) was 3 mg/kg. For the same compound, the Ki [12] was 573 nM and the Ki [13] was 1510 nM.
